# Results taken from ChEMBL document CHEMBL4428052, “Substrate-Guided Design of Selective FXIIa Inhibitors Based on the Plant-Derived Momordica cochinchinensis Trypsin Inhibitor-II (MCoTI-II) Scaffold” (J Med Chem, 2016).
# Peptide text beside a SMILES is read from it.
# Tests used:
# Coagulation factor XII = target: T1, Coagulation factor XII (Homo sapiens, UniProt P00748); test: Inhibition of factor 12a (unknown origin) using Ac-QRFRpNA as substrate incubated for 30 mins measured for 7 mins by morrison plot analysis
# T1 sequence (P00748 whole entry): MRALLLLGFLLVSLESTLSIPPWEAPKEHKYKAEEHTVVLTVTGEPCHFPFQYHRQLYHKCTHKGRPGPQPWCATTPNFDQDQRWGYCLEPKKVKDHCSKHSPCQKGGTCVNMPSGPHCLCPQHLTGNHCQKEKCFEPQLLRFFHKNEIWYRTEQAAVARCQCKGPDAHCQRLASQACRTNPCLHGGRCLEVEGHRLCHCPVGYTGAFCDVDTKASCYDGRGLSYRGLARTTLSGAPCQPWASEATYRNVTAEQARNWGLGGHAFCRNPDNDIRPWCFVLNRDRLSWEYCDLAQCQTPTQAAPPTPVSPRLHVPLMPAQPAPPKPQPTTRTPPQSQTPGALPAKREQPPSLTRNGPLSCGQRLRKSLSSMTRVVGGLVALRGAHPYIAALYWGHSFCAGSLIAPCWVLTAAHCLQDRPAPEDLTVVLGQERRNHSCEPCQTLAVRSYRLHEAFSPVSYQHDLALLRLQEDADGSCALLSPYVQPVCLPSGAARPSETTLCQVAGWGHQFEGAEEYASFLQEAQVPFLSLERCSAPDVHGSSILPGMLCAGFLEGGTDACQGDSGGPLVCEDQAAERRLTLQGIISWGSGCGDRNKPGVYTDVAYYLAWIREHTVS
# Coagulation factor X = Coagulation factor X (Homo sapiens, UniProt P00742); test: Inhibition of factor 10a (unknown origin) using Ac-QRSRpNA as substrate incubated for 30 mins measured for 7 mins by morrison plot analysis
# Homo sapiens [1] = organism: Homo sapiens; test: Selectivity ratio of Ki for factor 12a (unknown origin) to Ki for factor 10a (unknown origin)
# Prothrombin = Prothrombin (Homo sapiens, UniProt P00734); test: Inhibition of thrombin (unknown origin) using Ac-ATPRpNA as substrate incubated for 30 mins measured for 7 mins by morrison plot analysis
# [2] = target: Urokinase-type plasminogen activator (Homo sapiens, UniProt P00749); test: Inhibition of uPA (unknown origin) incubated for 30 mins measured for 7 mins by morrison plot analysis
# Homo sapiens [3] = organism: Homo sapiens; test: Selectivity ratio of Ki for human plasma kallikrein to Ki for factor 12a (unknown origin)
# Homo sapiens [4] = organism: Homo sapiens; test: Selectivity ratio of Ki for factor 10a (unknown origin) to Ki for factor 12a (unknown origin)
# Coagulation factor X, sequence (P00742 41-179 limits assumed): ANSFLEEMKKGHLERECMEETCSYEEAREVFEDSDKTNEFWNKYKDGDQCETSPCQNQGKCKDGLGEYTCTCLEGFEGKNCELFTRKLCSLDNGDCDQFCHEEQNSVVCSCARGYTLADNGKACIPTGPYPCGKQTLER
# Coagulation factor X, sequence (P00742 235-488 limits assumed): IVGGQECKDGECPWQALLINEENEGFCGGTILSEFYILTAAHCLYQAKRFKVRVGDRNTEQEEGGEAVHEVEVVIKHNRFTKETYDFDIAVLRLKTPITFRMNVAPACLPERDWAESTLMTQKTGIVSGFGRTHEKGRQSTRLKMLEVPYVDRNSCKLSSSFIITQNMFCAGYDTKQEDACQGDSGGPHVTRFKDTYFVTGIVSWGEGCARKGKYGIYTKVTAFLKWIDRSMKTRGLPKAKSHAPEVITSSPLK
Ki (Coagulation factor XII),Ki (Coagulation factor X),Ratio Ki (Homo sapiens [1]),Ki (Prothrombin),Ki [2],Ratio Ki (Homo sapiens [3]),Ratio Ki (Homo sapiens [4]),SMILES
2390 nM,360 nM,6,–,–,–,–,CC(=O)N[C@@H](CCC(N)=O)C(=O)N[C@@H](CCCNC(=N)N)C(=O)N[C@@H](CO)C(=O)N[C@H](C=O)CCCNC(=N)N (Ac-QRSR-aldehyde)
–,> 100000 nM,–,> 50000 nM,> 50000 nM,9,–,CC[C@H](C)[C@@H]1NC(=O)[C@H](CCCNC(=N)N)NC(=O)[C@H](Cc2ccccc2)NC(=O)[C@H](NC(=O)[C@H](CCC(N)=O)NC(=O)CNC(=O)[C@@H](N)CCCCN)CSSC[C@H]2NC(=O)[C@H](C)NC(=O)CNC(=O)[C@@H]3CCCN3C(=O)[C@@H]3CSSC[C@H](C(=O)NCC(=O)N[C@@H](CO)C(=O)NCC(=O)N[C@@H](CO)C(=O)N[C@@H](CC(=O)O)C(=O)O)NC(=O)[C@H](Cc4ccc(O)cc4)NC(=O)CNC(=O)[C@H](CC(N)=O)NC(=O)CNC(=O)[C@H](CCCNC(=N)N)NC(=O)[C@H](CSSC[C@H](NC(=O)[C@H](CCCCN)NC(=O)[C@H](CCCCN)NC(=O)[C@H](Cc4c[nH]c5ccccc45)NC1=O)C(=O)N[C@@H](CCCNC(=N)N)C(=O)N[C@@H](CCCNC(=N)N)C(=O)N[C@@H](CC(=O)O)C(=O)N[C@@H](CO)C(=O)N[C@@H](CC(=O)O)C(=O)N3)NC(=O)[C@H]([C@@H](C)CC)NC2=O
–,460 nM,–,> 10000 nM,> 10000 nM,–,4,CC[C@H](C)[C@@H]1NC(=O)[C@H](CCCNC(=N)N)NC(=O)[C@H](Cc2ccccc2)NC(=O)[C@H](NC(=O)[C@H](CCC(N)=O)NC(=O)CNC(=O)CN)CSSC[C@H]2NC(=O)[C@H](C)NC(=O)CNC(=O)[C@@H]3CCCN3C(=O)[C@@H]3CSSC[C@H](C(=O)NCC(=O)N[C@@H](CO)C(=O)NCC(=O)N[C@@H](CO)C(=O)N[C@@H](CC(=O)O)C(=O)O)NC(=O)[C@H](Cc4ccc(O)cc4)NC(=O)CNC(=O)[C@H](CC(N)=O)NC(=O)CNC(=O)[C@H](CCCNC(=N)N)NC(=O)[C@H](CSSC[C@H](NC(=O)[C@H](CCCCN)NC(=O)[C@H](CCCCN)NC(=O)[C@H](CC(C)C)NC1=O)C(=O)N[C@@H](CCCNC(=N)N)C(=O)N[C@@H](CCCNC(=N)N)C(=O)N[C@@H](CC(=O)O)C(=O)N[C@@H](CO)C(=O)N[C@@H](CC(=O)O)C(=O)N3)NC(=O)[C@H]([C@@H](C)CC)NC2=O
